How the values were obtained:
Experiment in all cases: relative viability (nuclei count vs DMSO), 5 days (fraction); higher = more cells survive
Avagacestat + Tozasertib = compound: NC(=O)[C@@H](CCC(F)(F)F)N(Cc1ccc(-c2ncon2)cc1F)S(=O)(=O)c1ccc(Cl)cc1 [Avagacestat] + Cc1cc(Nc2cc(N3CCN(C)CC3)nc(Sc3ccc(NC(=O)C4CC4)cc3)n2)n[nH]1 [Tozasertib] (partner 0.1 µM)
Summary of the method: (§1)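 Five library-drug doses in √10 steps were combined with a fixed anchor-drug dose, or a single drug was given alone, by pin tool to lung cancer cell lines in 1536-well plates the day after seeding. Nuclei were stained and counted after 5 days. Relative viability is the nuclei count in treated wells over that in vehicle wells, taken as the median of duplicate plates.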

Avagacestat + Foretinib = compound: NC(=O)[C@@H](CCC(F)(F)F)N(Cc1ccc(-c2ncon2)cc1F)S(=O)(=O)c1ccc(Cl)cc1 [Avagacestat] + COc1cc2c(Oc3ccc(NC(=O)C4(C(=O)Nc5ccc(F)cc5)CC4)cc3F)ccnc2cc1OCCCN1CCOCC1 [Foretinib] (partner 0.25 µM)
Summary of the method: as §1

Avagacestat + AZD7762 = compound: NC(=O)[C@@H](CCC(F)(F)F)N(Cc1ccc(-c2ncon2)cc1F)S(=O)(=O)c1ccc(Cl)cc1 [Avagacestat] + NC(=O)Nc1cc(-c2cccc(F)c2)sc1C(=O)N[C@H]1CCCNC1 [AZD7762] (partner 0.2 µM)
Summary of the method: as §1

Avagacestat + Luminespib = compound: NC(=O)[C@@H](CCC(F)(F)F)N(Cc1ccc(-c2ncon2)cc1F)S(=O)(=O)c1ccc(Cl)cc1 [Avagacestat] + CCNC(=O)c1noc(-c2cc(C(C)C)c(O)cc2O)c1-c1ccc(CN2CCOCC2)cc1 [Luminespib] (partner 0.01 µM)
Summary of the method: as §1

Cell Line	relative viability (Avagacestat + Tozasertib; first compound 0.08 µM)	relative viability (Avagacestat + Tozasertib; first compound 0.253 µM)	relative viability (Avagacestat + Tozasertib; first compound 0.8 µM)	relative viability (Avagacestat + Tozasertib; first compound 2.53 µM)	relative viability (Avagacestat + Tozasertib; first compound 8 µM)	relative viability (Avagacestat + Foretinib; first compound 0.08 µM)	relative viability (Avagacestat + Foretinib; first compound 0.253 µM)	relative viability (Avagacestat + Foretinib; first compound 0.8 µM)	relative viability (Avagacestat + Foretinib; first compound 2.53 µM)	relative viability (Avagacestat + Foretinib; first compound 8 µM)	relative viability (Avagacestat + AZD7762; first compound 0.08 µM)	relative viability (Avagacestat + AZD7762; first compound 0.253 µM)	relative viability (Avagacestat + AZD7762; first compound 0.8 µM)	relative viability (Avagacestat + AZD7762; first compound 2.53 µM)	relative viability (Avagacestat + AZD7762; first compound 8 µM)	relative viability (Avagacestat + Luminespib; first compound 0.08 µM)	relative viability (Avagacestat + Luminespib; first compound 0.253 µM)	relative viability (Avagacestat + Luminespib; first compound 0.8 µM)	relative viability (Avagacestat + Luminespib; first compound 2.53 µM)	relative viability (Avagacestat + Luminespib; first compound 8 µM)
NCI-H1793	0.307	0.329	0.655	0.239	0.3	0.686	0.693	0.854	0.473	0.619	0.619	0.474	0.373	0.346	0.228	0.145	0.176	0.157	0.198	0.172
NCI-H1915	0.51	0.48	0.464	0.393	0.398	1.21	1.26	1.21	1.06	1.03	0.694	0.72	0.74	0.806	0.678	1.07	1.18	1.01	0.745	0.669
NCI-H1944	0.256	0.314	0.232	0.222	0.257	0.895	1.06	0.795	0.644	0.779	0.455	0.603	0.571	0.454	0.719	0.731	0.941	0.591	0.515	0.599
NCI-H1975	1.01	0.945	0.928	0.603	0.367	1.1	1.16	0.988	1.02	1.01	0.718	0.712	0.853	0.649	0.642	0.216	0.164	0.207	0.182	0.154
NCI-H1993	0.604	0.594	0.529	0.541	0.539	0.924	0.885	0.973	0.763	0.787	0.956	0.61	0.741	0.731	0.6	0.93	0.91	1.04	0.752	0.842
NCI-H2085	0.849	0.894	0.842	0.803	0.829	1.25	1.09	1.06	1.11	0.911	1.07	1.13	1.09	1.08	0.794	0.438	0.481	0.729	0.414	0.472
NCI-H2087	0.218	0.286	0.277	0.248	0.237	1.11	1.39	1.09	1.09	1.23	1.41	1.65	1.31	1.24	1.18	0.161	0.173	0.276	0.264	0.143
NCI-H2126	0.81	0.859	0.906	0.334	0.778	1.53	1.21	1.34	1.06	1.02	1.02	0.979	1.01	0.912	1.02	0.893	0.939	0.978	0.852	0.891

— the supplement of paper PMC10307832
